Test [1] deals with HT-29 human colon cancer. In words: MTS cell proliferation assay, SNH and chemotherapy. Format: cell-based. Conditions: HT-29, 4 hour treatment with SNH followed by a 24 hour treatment (FIG. 11). How it is done:
NCI-H727 and LNCaP were grown in RPMI 1640 medium supplemented with 10% heat inactivated FCS, L-glutamine and antibiotics. HT-29 and CT-26 were grown in DMEM medium supplemented with 10% heat-inactivated FCS (fetal calf serum), L-glutamine and antibiotics. The cells were cultured in 5% CO2/95% air at […] and used during their exponential growth phase. Routinely, the cells which are adherent, were split when a subconfluent monolayer was formed. In different experiments, various concentration of FCS were used. For growth inhibition experiments, subconfluent adherent cells were washed with PBS and treated with trypsin/versene. The cells were pelleted and resuspended in medium to a final concentration of 75,000 cells/mL for NCI-H727. 50,000 cells/mL for LNCaP and HT-29 and 25000 cells/mL for CT-26. These different concentrations were used in order to avoid confluence in the wells at the end of the experiment and correspond to the different doubling times of the cell lines. […] On day 4, viable cell number was determined by a modified MTT assay i.e., MTS non-radioactive cell proliferation assay (Promega). […] Results were finally expressed as percentage of the control, which was obtained from the samples with no drug treatment. Dose-response curves were plotted using a Sigma-Plot software and statistically analyzed using Student test. […] On day 4 the number of viable cells was determined by MTS assay.
For orientation: Formazan colour is commonly taken as a measure of viable cells.

In test [2] the test system is panel of 56 cancer cell lines. The experiment in a line: NCI "compare analysis", panel of 56 cancer cell lines. Format: cell-based. The source says: The mean value±S. D. of 8 determinations is indicated; *, p<0.05 using student's t-test. (SN)VIPhyb inhibited the growth of leukemia (CCRF-CEM), HL-60(TB), K-562, MOLT-4, RPMI-8226, SR), non-small cell lung cancer (A549, EKVX, HOP-62, HOP-92, H23, H322M, H460 and H522), colon cancer (COLO205, HCC-2998, HCT-116, HT29, KM12, SW-620), CNS cancer (SF-268, SF-295, SF-539, SNB-19, U251), melanoma (LOX IMVI, MALME-3M, M14, SK-MEL-2, SK-MEL-28, SK-MEL-5, UACC-257, UACC-62), ovarian cancer (IGROV1, OVCAR-3, OVCAR-5, OVCAR-8, SK-OV-3), renal cancer (786-0, A498, CAKI-1, RXF 393, SM12C, TK-l0), prostate cancer (PC-3, DU-145) and breast cancer (MCF-7, MDA-MB-231, HS 578T, MDA-MB-435, MDA-N and T-47D).

Where a SMILES comes first, the peptide text is derived from it. [ ]: non-standard residue; d: D form. The star is where a group is joined. Stearoyl = CCCCCCCCCCCCCCCCCC(=O)*; Nle = CCCC[C@H](N)C(=O)O

Take `CCCCCCCCCCCCCCCCCC(=O)N[C@@H](CCCCN)C(=O)N1CCC[C@H]1C(=O)N[C@@H](CCCNC(=N)N)C(=O)N[C@@H](CCCNC(=N)N)C(=O)N1CCC[C@H]1C(=O)N[C@@H](Cc1ccc(O)cc1)C(=O)N[C@H](C(=O)N[C@@H](CC(=O)O)C(=O)N[C@@H](CC(N)=O)C(=O)N[C@@H](Cc1ccc(O)cc1)C(=O)N[C@H](C(=O)N[C@@H](CCCNC(=N)N)C(=O)N[C@@H](CC(C)C)C(=O)N[C@@H](CCCNC(=N)N)C(=O)N[C@@H](CCCCN)C(=O)N[C@@H](CCC(N)=O)C(=O)N[C@@H](CCCC)C(=O)N[C@@H](C)C(=O)N[C@H](C(=O)N[C@@H](CCCCN)C(=O)N[C@@H](CCCCN)C(=O)N[C@@H](Cc1ccc(O)cc1)C(=O)N[C@@H](CC(C)C)C(=O)N[C@@H](CC(N)=O)C(=O)N[C@@H](CO)C(=O)N[C@H](C(=O)N[C@@H](CC(C)C)C(=O)N[C@@H](CC(N)=O)C(N)=O)[C@@H](C)CC)C(C)C)[C@@H](C)O)[C@@H](C)O` [SNH] (Stearoyl-KPRRPYTDNYTRLRKQ[Nle]AVKKYLNSILN-NH2): in test [1], the “effect of the combination with a different schedule” value is recorded as “also effective”. Further, the “cell lines significantly inhibited” value in test [2] (CNS cancer) was 5/5; in test [2] (breast cancer), 6/8; in test [2] (colon cancer), 6/7; in test [2] (leukemia), 6/6; in test [2] (melanoma) it was 8/8; in test [2] (non-small cell lung cancer), 7/7. The entries for the “cell lines significantly inhibited” value in test [2] (ovarian cancer), in test [2] (prostate cancer) and in test [2] (renal cancer) were 5/6, 2/2 and 6/7, respectively. For the same molecule, the “cell lines whose proliferation was significantly inhibited” value in test [2] (all cell lines tested) is reported as 51 of 56.

(Values after patent US6630124B1, “Combination therapy with VIP antagonist” (Ramot-University Authority for Applied Research and …, priority 1998, dated 2003).)
